Data set [1] relates to Rattus norvegicus. The data set is described as follows: Peripheral cholinergic effects in male wistar rats when administered orally at a dose of 3 mg/Kg. In kind it is functional, organism-based.
For data set [2], the target named is T1, Acetylcholinesterase (Rattus norvegicus, UniProt P37136).
T1 sequence (P37136 whole entry): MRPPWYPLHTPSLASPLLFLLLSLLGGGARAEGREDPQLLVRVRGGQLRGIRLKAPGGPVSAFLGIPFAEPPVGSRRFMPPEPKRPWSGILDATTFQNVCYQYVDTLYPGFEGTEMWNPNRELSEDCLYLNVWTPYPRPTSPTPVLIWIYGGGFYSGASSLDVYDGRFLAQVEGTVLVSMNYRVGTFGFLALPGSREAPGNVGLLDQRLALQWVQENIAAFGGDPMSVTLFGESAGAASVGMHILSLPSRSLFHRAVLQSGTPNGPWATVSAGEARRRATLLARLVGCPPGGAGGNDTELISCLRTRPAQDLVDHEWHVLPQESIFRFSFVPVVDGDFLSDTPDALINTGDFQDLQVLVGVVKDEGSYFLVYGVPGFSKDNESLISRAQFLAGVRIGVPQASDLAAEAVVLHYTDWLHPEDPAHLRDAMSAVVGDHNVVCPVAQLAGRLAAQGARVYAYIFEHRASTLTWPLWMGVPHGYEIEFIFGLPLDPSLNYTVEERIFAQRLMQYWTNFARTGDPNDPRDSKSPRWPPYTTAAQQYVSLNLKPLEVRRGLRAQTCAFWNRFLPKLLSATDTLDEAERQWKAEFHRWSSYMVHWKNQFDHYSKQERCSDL
Description: Inhibition of acetylcholinesterase (AChE)

For data set [3], the species on record is Rattus norvegicus. As to conditions: dose 10 mg/kg; route oral.
Description: Number of circlings observed for 30 min at 10 mg/kg orally administered dose in rats
The test system of data set [4] is Rattus norvegicus. The experiment in a line: Effect of compound on peripheral cholinergic effects in male wistar rats when administered orally at a dose of 30 mg/Kg; […]. In kind it is functional, organism-based.
In data set [5] the test system is Rattus norvegicus. The experiment in a line: Effect of compound on peripheral cholinergic effects in male wistar rats when administered orally at a dose of 10 mg/Kg; salivation. In kind it is functional, organism-based.
The test system of data set [6] is Rattus norvegicus. The data set is described as follows: Effect of compound on peripheral cholinergic effects in male wistar rats when administered orally at a dose of 30 mg/Kg; fasciculation, salivation. Format: functional, organism-based.
The species named for data set [7] is Rattus norvegicus. The experiment in a line: Inhibition of circling behavior, percentage of control was reported; (p<0.05). Format: functional. Set-up: scale not given: the % may be the effect or the level left.
Data set [8] is described as follows: Acute toxicity in rat by peroral administration. To be noted: in vivo, po. Format: organism-based.
In data set [9] the test system is Rattus norvegicus. The experiment in a line: Number of circlings observed for 30 min at 1 mg/kg orally administered dose in rats. Format: functional. As to conditions: route oral.
Data set [10] in a line: ED50/MED ratio. In kind it is functional.
The species named for data set [11] is Rattus norvegicus. The data set is described as follows: animal or person. To be noted: po.
Description: Tested for effective inhibition by peroral administration
For data set [12], the system named is Rattus norvegicus. The experiment in a line: Effect of compound on peripheral cholinergic effects in male wistar rats when administered orally at a dose of 30 mg/Kg; fasciculation, lacrimation. Format: functional, organism-based.
In data set [13] the test system is Rattus norvegicus. The data set is described as follows: Peripheral cholinergic effects in male wistar rats when administered orally at a dose of 10 mg/Kg. In kind it is functional, organism-based.
The species named for data set [14] is Rattus norvegicus.
Description: Ameliorating effects on diazepam-induced memory impairment of passive avoidance response (no of rats) by peroral administration
For data set [15], the species on record is Rattus norvegicus. The experiment in a line: animal or person. As to conditions: read-out: MED.
Description: Ameliorating effects on diazepam-induced memory impairment of passive avoidance response (no of rats)
Data set [16] in a line: LD50/MED ratio. In kind it is ADME. As to conditions: read-out: Therapeutic index.
The test system of data set [17] is Rattus norvegicus. The data set is described as follows: Number of circlings observed for 30 min at 3 mg/kg orally administered dose in rats. In kind it is functional. To be noted: route oral.

pIC50: −log10 of the molar value. Values joined by “and” are separate entries in the source; they are usually repeats but may differ in a detail not shown here. Equal values may be shown once.

On to `Cc1cccc(CN2CCC(CCC(=O)c3ccc4c(c3)NCCCC4)CC2)c1`, for which the Activity entry was “No activity” in data set [1] and “Fasciculation” in [4]. In data set [2], the pIC50 (as a rule, −log10 of the IC50, conventionally taken in molar units) is 6.65. The compound further displayed a No. of circlings in [3] of 61.4.
In the case of `O=C(CCC1CCN(Cc2ccccc2F)CC1)c1ccc2c(c1)CCN2`, the Activity entry is “No activity” in [1]; “Salivation” in data set [5]; “Fasciculation, Salivation” in [6]. Further, the pIC50 in data set [2] was 7.37. The same compound had a No. of circlings in data set [3] of 86.7.
As for `O=C(CCC1CCN(Cc2ccccc2)CC1)c1ccc2c(c1)NCCCC2` [ZANAPEZIL], the Activity entry in [1] was “No activity”; in data set [12], “Fasciculation, Lacrimation”; in [13] it was “Fasciculation”. The Control in [7] was 69.9%. Further, in [8], the median lethal dose (LD50) – broadly, the dose expected to kill half of the subjects tested – stood at 334 mg/kg. Also, the No. of circlings in data set [9] was 87.5; in [17], 75.1. Further, the Central selectivity in [10] is 10.2. Moreover, the ED50 (in general, the dose that gives a 50% effect, or the effect in half of the subjects) in [11] amounted to 10.2 mg/kg. Besides, the Avoidance time in [14] was 106.6 s and 192.2 s and 193.2 s. Also, the pIC50 in [2] was 7.01. Besides, the minimal effective dose in data set [15] came out at 1 mg/kg. In [16], the selectivity ratio came to 334.

For the origin of these results see ChEMBL document CHEMBL1127586, “Central cholinergic agents. 6. Synthesis and evaluation of 3-[1-(phenylmethyl)-4-piperidinyl]-1-(2,3,4,5-tetrahydro-1H-1-benzazepi n-8-yl)-1-propanones and their analogs as central selective acetylcholinesterase inhibitors” (J Med Chem, 1994).
